Measured values reported in ChEMBL document CHEMBL1128348, “Potent non-peptide fibrinogen receptor antagonists which present an alternative pharmacophore” (J Med Chem, 1995).
pIC50, pKi: −log10 of the molar value.

What was measured:
Homo sapiens = organism: Homo sapiens; assay: Antiaggregatory activity against human platelet-rich plasma induced by ADP; type: functional, organism-based
[1] = biological target: Integrin alpha-IIb/beta-3 (Homo sapiens, UniProt P05106+P08514); assay: Inhibition of [3H]-SKF- 107260 binding to purified alphaIIb-beta3 integrin of human platelets
Sequence of Integrin alpha-IIb/beta-3 (P05106 27-788 limits assumed): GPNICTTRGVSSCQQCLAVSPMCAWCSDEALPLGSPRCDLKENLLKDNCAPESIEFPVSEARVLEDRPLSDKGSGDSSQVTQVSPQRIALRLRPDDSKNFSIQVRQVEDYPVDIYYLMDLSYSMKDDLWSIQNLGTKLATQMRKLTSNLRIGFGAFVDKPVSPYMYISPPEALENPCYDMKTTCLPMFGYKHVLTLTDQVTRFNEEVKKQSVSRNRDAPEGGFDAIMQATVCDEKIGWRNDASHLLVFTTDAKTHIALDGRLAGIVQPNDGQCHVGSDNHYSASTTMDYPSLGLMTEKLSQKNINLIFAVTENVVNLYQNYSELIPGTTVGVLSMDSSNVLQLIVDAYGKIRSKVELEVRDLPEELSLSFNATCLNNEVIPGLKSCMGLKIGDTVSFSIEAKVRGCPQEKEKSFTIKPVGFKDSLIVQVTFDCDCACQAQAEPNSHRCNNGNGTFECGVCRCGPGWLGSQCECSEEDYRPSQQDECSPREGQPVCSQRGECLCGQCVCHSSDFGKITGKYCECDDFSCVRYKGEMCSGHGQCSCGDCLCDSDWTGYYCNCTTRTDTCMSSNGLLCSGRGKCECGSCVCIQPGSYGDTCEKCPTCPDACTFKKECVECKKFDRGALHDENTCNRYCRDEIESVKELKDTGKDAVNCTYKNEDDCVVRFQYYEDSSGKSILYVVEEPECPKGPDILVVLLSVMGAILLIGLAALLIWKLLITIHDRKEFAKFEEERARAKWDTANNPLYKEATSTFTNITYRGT
Sequence of Integrin alpha-IIb/beta-3 (P08514 32-887 limits assumed): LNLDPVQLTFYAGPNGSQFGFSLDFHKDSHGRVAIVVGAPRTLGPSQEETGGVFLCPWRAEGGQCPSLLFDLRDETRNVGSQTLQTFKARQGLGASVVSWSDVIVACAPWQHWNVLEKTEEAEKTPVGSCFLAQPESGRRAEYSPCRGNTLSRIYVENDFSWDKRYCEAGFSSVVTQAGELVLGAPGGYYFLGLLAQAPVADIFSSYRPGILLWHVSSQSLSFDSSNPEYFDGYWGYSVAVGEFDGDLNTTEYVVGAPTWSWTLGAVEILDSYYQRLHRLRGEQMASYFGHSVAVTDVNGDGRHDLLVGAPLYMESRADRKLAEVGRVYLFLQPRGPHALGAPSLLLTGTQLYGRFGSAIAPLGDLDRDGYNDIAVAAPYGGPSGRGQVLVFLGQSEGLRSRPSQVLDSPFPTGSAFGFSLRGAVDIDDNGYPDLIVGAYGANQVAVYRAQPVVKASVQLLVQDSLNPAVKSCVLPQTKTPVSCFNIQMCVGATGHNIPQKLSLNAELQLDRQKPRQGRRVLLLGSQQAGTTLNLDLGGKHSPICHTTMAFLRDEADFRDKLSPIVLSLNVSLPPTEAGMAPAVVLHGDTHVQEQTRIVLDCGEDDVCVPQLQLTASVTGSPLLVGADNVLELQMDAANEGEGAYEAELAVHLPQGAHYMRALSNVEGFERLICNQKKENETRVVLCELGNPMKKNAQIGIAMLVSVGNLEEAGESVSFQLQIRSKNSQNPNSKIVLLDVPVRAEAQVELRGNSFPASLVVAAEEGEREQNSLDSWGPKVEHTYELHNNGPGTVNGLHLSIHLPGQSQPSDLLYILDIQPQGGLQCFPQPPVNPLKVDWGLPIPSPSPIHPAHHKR
Sequence of Integrin alpha-IIb/beta-3 (P08514 891-1039 limits assumed): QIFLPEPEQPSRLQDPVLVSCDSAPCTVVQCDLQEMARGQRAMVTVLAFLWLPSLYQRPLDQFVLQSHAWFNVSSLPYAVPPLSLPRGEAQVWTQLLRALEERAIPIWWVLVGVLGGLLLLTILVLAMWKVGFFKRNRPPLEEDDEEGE

| pIC50 (Homo sapiens) | pKi [1] | SMILES |
| --- | --- | --- |
| 5.28 | 5.72 | N=C(N)NCCC[C@@H]1NC(=O)[C@@H]2CCCN2C(=O)[C@H]2CCCN2C(=O)CNC(=O)[C@H](CC(=O)O)NC(=O)CNC1=O |
| 7.05 |  | CN1C(=O)c2ccccc2SSc2ccccc2NC(=O)[C@H](CC(=O)O)NC(=O)CNC(=O)[C@@H]1CCCN=C(N)N [SKF-107260] |
| 6.42 | 7.59 | N=C(N)c1ccc(NC(=O)c2ccc3c(c2)CN(CCc2ccccc2)C(=O)C(CC(=O)O)N3)cc1 (configuration not stated) |
| 6.82 | 8.64 | N=C(N)c1ccc(NC(=O)c2ccc3c(c2)NC(CC(=O)O)C(=O)N(CCc2ccccc2)C3)cc1 (configuration not stated) |
